SMILES strings stand for the structures.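 Cultured in 96-well plates, cells were exposed to test compound for 48 hours across five concentrations. GI50 marks 50% less growth. Definition used: TGI = concentration required for complete inhibition of growth.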

Common to all, as to test: NCI-60 cell line screen, 48 h
The subject of experiment [1] is HOP-92 NSCLC.
Experiment [2] has as its system HCT-15 colon.
Experiment [3] relates to SK-MEL-5 melanoma.
Experiment [4] relates to SNB-75 CNS.
In experiment [5] the test system is T-47D breast.
Experiment [6] relates to A498 renal.
Experiment [7] has as its system 786-0 renal.
In experiment [8] the test system is SF-295 CNS.
Experiment [9] concerns CAKI-1 renal.
The test system of experiment [10] is MCF7 breast.

On to `CCc1c(Cl)nc(Cl)nc1Cl`, for which the TGI in experiment [1] came out at 3 µM; in [2], 0.601 µM; in [3], 1.39 µM; in experiment [4], 4.21 µM; in experiment [5] it was 1.7 µM; in experiment [6], 16.8 µM. Further, the TGI in experiment [7] was determined as 3.71 µM; in [8], 5.84 µM; in experiment [9], 0.404 µM; in [10], 0.258 µM.

Consider `CCC1CC(=O)N(SCC(N)C(=O)O)C1=O` (configuration not stated), for which the TGI in experiment [1], in [2], in experiment [3], in experiment [4], in experiment [5] and in experiment [6] was greater than 100 µM each time. In addition, the TGI in experiment [7], in [8], in [9] and in experiment [10] was greater than 100 µM each time.

Take `Oc1cc(O)c2c(=S)cc(-c3ccc(Cl)cc3)oc2c1`: the GI50 was 1.62 µM in [1]; 0.397 µM in experiment [2]; 1.89 µM in experiment [3]; 2.23 µM in experiment [4]; 0.0304 µM in [5]; 1.22 µM in experiment [6]. Further, the GI50 is 7.12 µM in [7], 5.67 µM in experiment [8], 2.95 µM in experiment [9] and 0.111 µM in experiment [10]. In addition, the TGI came to 5.11 µM in experiment [1]; 11.9 µM in [2]; 5.04 µM in experiment [3]; 13.8 µM in [4]; 0.547 µM in experiment [5]; 11.7 µM in experiment [6]. The TGI is 22.9 µM in [7], 22.9 µM in experiment [8], 19.1 µM in [9] and 11.4 µM in [10].

On to `COc1ccc(C2=C(c3cc(OC)c(OC)c(OC)c3)C(=O)CC2)cc1`, for which the GI50 is 1.68 µM in [1]; 0.147 µM in experiment [2]; 0.123 µM in experiment [3]; 0.224 µM in experiment [4]; 24.6 µM in [5]; 0.0403 µM in experiment [6]. Moreover, the GI50 in experiment [7] was 0.425 µM; in experiment [8], 0.0548 µM; in [9] it was 0.76 µM; in experiment [10], 0.0585 µM. Moreover, the TGI in experiment [1] was 54.1 µM; in experiment [2], greater than 100 µM; in experiment [3] it was 6.24 µM; in [4], greater than 100 µM; in experiment [5] it was greater than 100 µM; in experiment [6], 0.429 µM. The TGI was greater than 100 µM in [7], greater than 20.5 µM in experiment [8], greater than 100 µM in experiment [9] and greater than 100 µM in experiment [10].

Take `C#CCNC(=O)CC[C@]1(C)[C@H]2CC[C@@H]3[C@@H]([C@@](C)(O)CCC=C(C)C)CC[C@@]3(C)[C@]2(C)CC[C@H]1C(=C)C`: the GI50 is 14.8 µM in experiment [1]; 20.8 µM in experiment [2]; 38.8 µM in experiment [3]; greater than 100 µM in experiment [4]; 35 µM in experiment [5]; greater than 100 µM in [6]. Besides, the GI50 is 12.2 µM in experiment [7], 48.4 µM in experiment [8], 4.25 µM in experiment [9] and 24.7 µM in [10]. For the same molecule, the TGI in [1] is 34.2 µM; in experiment [2], 59.3 µM; in [3], greater than 100 µM; in experiment [4], greater than 100 µM; in experiment [5], greater than 100 µM; in experiment [6], greater than 100 µM. Further, the TGI in [7] is 30 µM; in [8], greater than 100 µM; in experiment [9], 17.7 µM; in experiment [10], greater than 100 µM.

On to `COC(=O)Nc1nc2cc3c(cc2s1)OCCO3`, for which the GI50 in experiment [1], in experiment [2], in experiment [3], in experiment [4], in experiment [5] and in experiment [6] was greater than 50 µM throughout. For the same molecule, the GI50 in [7], in experiment [8], in [9] and in experiment [10] was greater than 50 µM each time. Moreover, the TGI in [1], in [2], in [3], in [4], in [5] and in experiment [6] was greater than 50 µM in each case. For the same molecule, the TGI in [7], in [8], in experiment [9] and in experiment [10] was greater than 50 µM throughout.

Regarding `O=c1[nH]c(SCc2c(Cl)c(Cl)c(Cl)c(Cl)c2Cl)nc(=S)[nH]1`, the TGI in [1] is greater than 100 µM; in [2] it was greater than 100 µM; in experiment [3], greater than 100 µM; in experiment [4], greater than 100 µM; in experiment [5], greater than 82.9 µM; in [6], greater than 100 µM. The TGI in experiment [7], in experiment [8], in experiment [9] and in experiment [10] was greater than 100 µM each time.

As for `COc1cccc(C2C3=C(COC3=O)N(CCO)c3cc4c(cc32)OCCO4)c1` (configuration not stated), the GI50 is 0.0348 µM in experiment [1]; 0.21 µM in experiment [2]; 0.0474 µM in experiment [3]; 0.0722 µM in experiment [4]; 0.239 µM in experiment [5]; 0.0264 µM in experiment [6]. Besides, the GI50 was 0.198 µM in experiment [7], 0.0389 µM in [8], 0.145 µM in experiment [9] and 0.0396 µM in experiment [10]. For the same molecule, the TGI in experiment [1] was 2.89 µM; in experiment [2] it was greater than 50 µM; in experiment [3], 1.23 µM; in experiment [4], 0.424 µM; in experiment [5], greater than 50 µM; in experiment [6], 0.276 µM. Moreover, the TGI is greater than 50 µM in experiment [7], greater than 34.8 µM in experiment [9] and greater than 50 µM in [10].

Regarding `O=C(O)CCCCn1cnc2c(=S)nc[nH]c21`, the TGI in experiment [1], in [2], in experiment [3], in experiment [4], in experiment [5] and in experiment [6] was greater than 100 µM in each case. Also, the TGI in [7], in experiment [8], in experiment [9] and in experiment [10] was greater than 100 µM in each case.

Consider `Cc1cc(-c2nc(-c3ccc(OC(F)(F)F)cc3)no2)nn1Cc1ccnc(N2CCN(C3CC3)CC2)c1`, for which the GI50 in experiment [1] is 1.55 µM; in experiment [2] it was 3.84 µM; in [3] it was less than 0.01 µM; in experiment [4], greater than 59.6 µM; in experiment [5] it was 1.03 µM; in experiment [6] it was 0.482 µM. The GI50 in experiment [7] was 13.5 µM; in experiment [8] it was less than 0.01 µM; in experiment [9], 6.3 µM. The TGI in [1] was 81.4 µM; in experiment [2] it was greater than 62 µM; in [3] it was 2.45 µM; in experiment [4], greater than 100 µM; in [5], greater than 100 µM; in experiment [6], greater than 100 µM. The TGI in experiment [7] is greater than 100 µM; in [8] it was greater than 100 µM; in experiment [9], greater than 100 µM; in [10] it was greater than 42.7 µM.

As to `CC[CH2][Sn]([Cl])([Cl])[CH2]CC`, the GI50 in [1] is 10.6 µM; in experiment [2], 11.3 µM; in experiment [3], 10.6 µM; in experiment [4], 6.24 µM; in experiment [5], 1.17 µM; in [6], 1.54 µM. The GI50 was 10.8 µM in experiment [7], 17.2 µM in experiment [8], 6.69 µM in experiment [9] and 3.27 µM in experiment [10]. For the same molecule, the TGI turned out to be 23.7 µM in experiment [1]; 25.5 µM in [2]; 22.6 µM in [3]; 20.1 µM in experiment [4]; 3.36 µM in experiment [5]; 3.62 µM in [6]. The TGI in [7] worked out at 23 µM; in [8], 33.4 µM; in experiment [9], 21 µM; in [10] it was 16.5 µM.

As to `CNC(C)C(=O)N[C@H](C(=O)N1CCC[C@@H]1CN(CCc1ccccc1)C(=O)C(F)(F)F)[C@H](C)OCC#CC#CCO[C@H](C)[C@H](NC(=O)[C@H](C)NC)C(=O)N1CCC[C@H]1CN(CCc1ccccc1)C(=O)C(F)(F)F` (some centres not stated), the GI50 in experiment [1] is 0.373 µM; in experiment [2], 1.76 µM; in [3], 1.31 µM; in experiment [4] it was less than 0.037 µM; in experiment [5] it was 1.64 µM; in experiment [6] it was 1.03 µM. Also, the GI50 was 1.65 µM in experiment [7], 1.31 µM in experiment [8], 2.39 µM in experiment [9] and 0.239 µM in experiment [10]. In addition, the TGI in experiment [1] amounted to 1.61 µM; in experiment [2], 3.75 µM; in [3], 2.62 µM; in [4], 0.764 µM; in [5], 3.3 µM; in experiment [6], 2.61 µM. The TGI is 3.25 µM in experiment [7], 2.84 µM in experiment [8], 5.51 µM in experiment [9] and 1.76 µM in experiment [10].

`COc1ccc(/C=C\c2cc(OC)c(OC)c(OC)c2)cc1OC(=O)c1cccc(Cn2cc(CCOC(=O)c3cccc(Cn4nnc5c4C(=O)c4ccccc4C5=O)c3)nn2)c1`: the GI50 in experiment [1] was 0.464 µM; in [2], less than 0.01 µM; in experiment [3], less than 0.01 µM; in [4], less than 0.01 µM; in [5], 51.6 µM; in [6], less than 0.01 µM. Moreover, the GI50 is 0.101 µM in [7], 0.0316 µM in [8], 0.0459 µM in experiment [9] and 0.0216 µM in experiment [10]. In addition, the TGI in experiment [1] is 33.7 µM; in [2], greater than 100 µM; in experiment [3] it was 0.0474 µM; in experiment [4], 22.1 µM; in experiment [5], greater than 100 µM; in [7], 17.5 µM. Also, the TGI in [8] was 4.36 µM; in experiment [9], 20.1 µM; in [10], greater than 70.5 µM.

As to `COC(=O)[C@H](CC(C)C)NC(=O)NC(=O)NC(=O)CI`, the GI50 in experiment [1] was 2.14 µM; in experiment [2], 1.66 µM; in [3], 16.4 µM; in [4], 11.9 µM; in experiment [5], 2.28 µM; in [6], 17.7 µM. Further, the GI50 in [7] was 3.02 µM; in [8], 14.7 µM; in experiment [9] it was 1.06 µM; in experiment [10], 1.8 µM. Further, the TGI amounted to 4.98 µM in [1]; 3.13 µM in experiment [2]; 30.3 µM in experiment [3]; 28.6 µM in [4]; 7.03 µM in experiment [5]; 32.6 µM in experiment [6]. Also, the TGI in experiment [7] was determined as 11.5 µM; in [8] it was 28.7 µM; in [9] it was 2.23 µM; in [10] it was 4.33 µM.

For `COc1ccc(/C=C/c2cc(N3CCOCC3)c3cc(F)c(F)cc3n2)cc1OC`, the GI50 is 1.36 µM in experiment [1]; 0.392 µM in experiment [2]; 0.52 µM in experiment [3]; 1.06 µM in experiment [4]; 0.449 µM in experiment [5]; 1.23 µM in experiment [6]. Besides, the GI50 was 0.6 µM in [7], 0.653 µM in experiment [8], 0.394 µM in experiment [9] and 0.389 µM in [10]. The TGI in [1] was determined as 6.53 µM; in [2], 12 µM; in experiment [3], 2.37 µM; in [4], 6.63 µM; in experiment [5], 5.69 µM; in experiment [6], 4.63 µM. Also, the TGI was found to be 3.8 µM in experiment [7], 14.9 µM in experiment [8], 3.24 µM in experiment [9] and 9.48 µM in experiment [10].

Turning to `OC(COc1cccc2ccccc12)CN1CCN(c2ccccc2)CC1` (configuration not stated), the GI50 is 4.86 µM in experiment [1]; 18.8 µM in experiment [2]; 15.9 µM in [3]; 13.7 µM in experiment [4]; 17.3 µM in experiment [5]; 13.5 µM in experiment [6]. In addition, the GI50 is 17.4 µM in experiment [7], 12.6 µM in experiment [8], 12.6 µM in experiment [9] and 17.3 µM in experiment [10]. Besides, the TGI in [1] amounted to 19 µM; in experiment [2], 35.7 µM; in experiment [3], 29.9 µM; in experiment [4] it was 27.2 µM; in [5], 34.7 µM; in [6], 26.4 µM. Also, the TGI is 32.2 µM in experiment [7], 26.6 µM in experiment [8], 27.2 µM in [9] and 31.9 µM in [10].
